From ChEMBL document CHEMBL1201862, “PubChem BioAssay data set” (2004)
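Growth conditions: 96-well plates. Treatment: test compound, 48 hours, 5 concentrations. Analysis: linear interpolation between bracketing concentrations; unreached endpoints set to highest concentration. The concentration for 50% growth inhibition is given as GI50.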 Activity calls are given as the source filed them. No stated cut-off is given here; in the data, active = GI50 up to about 1.1 µM and inactive = higher.

Assays:
Assay in all cases: growth of human tumour cells (NCI), 48 h
NCI/ADR-RES = test system: NCI/ADR-RES
SN12C = test system: SN12C
SK-MEL-28 = test system: SK-MEL-28
A549 = test system: A549
HT-29 = test system: HT-29
Malme-3M = test system: Malme-3M
BT-549 = test system: BT-549
CCRF-CEM = test system: CCRF-CEM
UO-31 = test system: UO-31
SF-539 = test system: SF-539
HOP-92 = test system: HOP-92
NCI-H522 = test system: NCI-H522
MCF7 = test system: MCF7
COLO 205 = test system: COLO 205
NCI-H23 = test system: NCI-H23
DU-145 = test system: DU-145
NCI-H460 = test system: NCI-H460
IGROV-1 = test system: IGROV-1
MDA-MB-435 = test system: MDA-MB-435
SW-620 = test system: SW-620
UACC-62 = test system: UACC-62
OVCAR-5 = test system: OVCAR-5
ACHN = test system: ACHN
SR = test system: SR
UACC-257 = test system: UACC-257
EKVX = test system: EKVX
MDA-N = test system: MDA-N
T47D = test system: T47D
HL-60 = test system: HL-60
MDA-MB-231 = test system: MDA-MB-231
MOLT-4 = test system: MOLT-4
TK-10 = test system: TK-10
Hs-578T = test system: Hs-578T
OVCAR-3 = test system: OVCAR-3
SF-295 = test system: SF-295
A498 = test system: A498
HCT-15 = test system: HCT-15
LOX IMVI = test system: LOX IMVI
HOP-62 = test system: HOP-62
SNB-19 = test system: SNB-19
KM12 = test system: KM12
CAKI-1 = test system: CAKI-1
PC-3 = test system: PC-3
SK-OV-3 = test system: SK-OV-3
SF-268 = test system: SF-268
M14 = test system: M14
HCT-116 = test system: HCT-116
U-251 = test system: U-251
HCC 2998 = test system: HCC 2998
K562 = test system: K562
SK-MEL-5 = test system: SK-MEL-5
RXF 393 = test system: RXF 393
RPMI-8226 = test system: RPMI-8226
786-0 = test system: 786-0
SNB-75 = test system: SNB-75
OVCAR-8 = test system: OVCAR-8
OVCAR-4 = test system: OVCAR-4
SK-MEL-2 = test system: SK-MEL-2
NCI-H226 = test system: NCI-H226

Compound: Oc1ccc2ccccc2c1C(c1ccc(Cl)cc1)c1c(O)ccc2ccccc12
- GI50 (NCI/ADR-RES): 2.85 µM (inactive)
- GI50 (SN12C): 2.76 µM (inactive)
- GI50 (SK-MEL-28): 3.87 µM (inactive)
- GI50 (A549): 2.95 µM (inactive)
- GI50 (HT-29): 2.98 µM (inactive)
- GI50 (Malme-3M): 2 µM (inactive)
- GI50 (BT-549): 4.65 µM (inactive)
- GI50 (CCRF-CEM): 2.63 µM (inactive)
- GI50 (UO-31): 2.9 µM (inactive)
- GI50 (SF-539): 5.05 µM (inactive)
- GI50 (HOP-92): 1.65 µM (inactive)
- GI50 (NCI-H522): 2.09 µM (inactive)
- GI50 (MCF7): 3.57 µM (inactive)
- GI50 (COLO 205): 2.06 µM (inactive)
- GI50 (NCI-H23): 3.78 µM (inactive)
- GI50 (DU-145): 3.37 µM (inactive)
- GI50 (NCI-H460): 3.16 µM (inactive)
- GI50 (IGROV-1): 2.35 µM (inactive)
- GI50 (MDA-MB-435): 3.18 µM (inactive)
- GI50 (SW-620): 3.18 µM (inactive)
- GI50 (UACC-62): 3.48 µM (inactive)
- GI50 (OVCAR-5): 3.08 µM (inactive)
- GI50 (ACHN): 3.52 µM (inactive)
- GI50 (SR): 2.82 µM (inactive)
- GI50 (UACC-257): 4.13 µM (inactive)
- GI50 (EKVX): 2.59 µM (inactive)
- GI50 (MDA-N): 3.31 µM (inactive)
- GI50 (T47D): 2.86 µM (inactive)
- GI50 (HL-60): 2.34 µM (inactive)
- GI50 (MDA-MB-231): 3.17 µM (inactive)
- GI50 (MOLT-4): 2.86 µM (inactive)
- GI50 (TK-10): 3.53 µM (inactive)
- GI50 (Hs-578T): 0.989 µM (active)
- GI50 (OVCAR-3): 2.63 µM (inactive)
- GI50 (SF-295): 3.4 µM (inactive)
- GI50 (A498): 2.7 µM (inactive)
- GI50 (HCT-15): 3.49 µM
- GI50 (LOX IMVI): 2.91 µM (inactive)
- GI50 (HOP-62): 3.89 µM (inactive)
- GI50 (SNB-19): 4.93 µM (inactive)
- GI50 (KM12): 2.67 µM (inactive)
- GI50 (CAKI-1): 2.71 µM (inactive)
- GI50 (PC-3): 2.51 µM (inactive)
- GI50 (SK-OV-3): 4.66 µM (inactive)
- GI50 (SF-268): 1.66 µM (inactive)
- GI50 (M14): 4.06 µM (inactive)
- GI50 (HCT-116): 2.48 µM (inactive)
- GI50 (U-251): 3.43 µM (inactive)
- GI50 (HCC 2998): 1.34 µM (inactive)
- GI50 (K562): 2.67 µM (inactive)
- GI50 (SK-MEL-5): 2.3 µM (inactive)
- GI50 (RXF 393): 2.96 µM (inactive)
- GI50 (RPMI-8226): 2.01 µM (inactive)
- GI50 (786-0): 3.66 µM (inactive)
- GI50 (SNB-75): 3.18 µM (inactive)
- GI50 (OVCAR-8): 3.33 µM (inactive)
- GI50 (OVCAR-4): 3.05 µM (inactive)
- GI50 (SK-MEL-2): 2.4 µM (inactive)

Compound: COc1cccc2c3ccccc3c3nc[nH]c3c12
- GI50 (NCI/ADR-RES): 46.3 µM (inactive)
- GI50 (SN12C): > 66.5 µM (inactive)
- GI50 (SK-MEL-28): 19.7 µM (inactive)
- GI50 (A549): 36.2 µM (inactive)
- GI50 (NCI-H226): 37.8 µM (inactive)
- GI50 (HT-29): 31.6 µM (inactive)
- GI50 (Malme-3M): 36.1 µM (inactive)
- GI50 (BT-549): > 71.1 µM (inactive)
- GI50 (CCRF-CEM): 12.4 µM (inactive)
- GI50 (UO-31): 41.7 µM (inactive)
- GI50 (SF-539): 18.2 µM (inactive)
- GI50 (HOP-92): 27.3 µM (inactive)
- GI50 (NCI-H522): 24.5 µM (inactive)
- GI50 (MCF7): 47.4 µM (inactive)
- GI50 (COLO 205): 17.9 µM (inactive)
- GI50 (NCI-H23): > 100 µM (inactive)
- GI50 (DU-145): 46.9 µM (inactive)
- GI50 (NCI-H460): 23.7 µM (inactive)
- GI50 (IGROV-1): 41.4 µM (inactive)
- GI50 (MDA-MB-435): 31.6 µM (inactive)
- GI50 (SW-620): 22.5 µM (inactive)
- GI50 (UACC-62): 22.8 µM (inactive)
- GI50 (OVCAR-5): 55.3 µM (inactive)
- GI50 (ACHN): 44.2 µM (inactive)
- GI50 (SR): 14.6 µM (inactive)
- GI50 (UACC-257): 23.6 µM (inactive)
- GI50 (EKVX): > 48.3 µM (inactive)
- GI50 (MDA-N): 32.1 µM (inactive)
- GI50 (T47D): > 50.4 µM (inactive)
- GI50 (MDA-MB-231): 25.4 µM (inactive)
- GI50 (MOLT-4): 9.08 µM (inactive)
- GI50 (TK-10): 26.1 µM (inactive)
- GI50 (Hs-578T): < 0.01 µM (active)
- GI50 (OVCAR-3): > 100 µM (inactive)
- GI50 (SF-295): 16 µM (inactive)
- GI50 (A498): 23.1 µM (inactive)
- GI50 (HCT-15): 27.7 µM
- GI50 (LOX IMVI): 33.8 µM (inactive)
- GI50 (HOP-62): 54.3 µM (inactive)
- GI50 (SNB-19): > 46.8 µM (inactive)
- GI50 (KM12): 18.7 µM (inactive)
- GI50 (CAKI-1): 48.4 µM (inactive)
- GI50 (PC-3): 30.8 µM (inactive)
- GI50 (SK-OV-3): > 62.1 µM (inactive)
- GI50 (SF-268): 62.1 µM (inactive)
- GI50 (M14): 28.6 µM (inactive)
- GI50 (HCT-116): 29.8 µM (inactive)
- GI50 (U-251): 14.7 µM (inactive)
- GI50 (HCC 2998): 23.9 µM (inactive)
- GI50 (K562): 12.4 µM (inactive)
- GI50 (SK-MEL-5): 16.7 µM (inactive)
- GI50 (RXF 393): 17.5 µM (inactive)
- GI50 (RPMI-8226): 21.9 µM (inactive)
- GI50 (786-0): 18.1 µM (inactive)
- GI50 (SNB-75): > 47.8 µM (inactive)
- GI50 (OVCAR-8): > 100 µM (inactive)
- GI50 (OVCAR-4): > 88.7 µM (inactive)
- GI50 (SK-MEL-2): 58.3 µM (inactive)
